In PMC3211141 (Anesthesiology, 2011):
Read-outs that look alike come from different tables or passages of the source.

Legend:
[1] = test system: homomeric and heteromeric TASK channels; test: Whole-cell recording, statements across all tested TASK channel constructs; assay type: cell-based
wild-type C57BL/6 mice = details: for EC50 for induction of seizures: wild type mice, quantal dose-response; for EC50 for induction of seizures / seizure incidence (N=seizure/total) / seizure incidence (% of mice) / seizure duration (typical): iv
[2] = test system: TASK-1−/−:TASK-3−/− double knockout mice; details: for EC50 for induction of seizures / seizure duration (typical): iv
[3] = target: TASK-1/TASK-3 heterodimeric channels (Rattus norvegicus, UniProt O54912+Q9ES08); assay type: cell-based; details: exemplar cell
TASK−/− mice = assay type: in vivo; details: two lower bupivacaine doses, n=6
wild-type mice = test: Electroencephalogram recording of bupivacaine-induced seizures, wild type mice; assay type: in vivo; details: control (wild type) mice, two lower bupivacaine doses, n=6
[4] = TASK−/− mice, quantal dose-response
[5] = C57BL/6, mouse, in vivo, 2.5 mg/kg
[6] = C57BL/6, mouse, in vivo, 3.75 mg/kg
[7] = C57BL/6, mouse, in vivo, 5 mg/kg
[8] = C57BL/6, mouse, in vivo, 6.25 mg/kg
[9] = C57BL/6, mouse, in vivo, 7.5 mg/kg
[10] = C57BL/6 background (TASK-1−/−:TASK-3−/− double knockout), mouse, in vivo
[11] = C57BL/6, mouse, in vivo, 10 mg/kg

Sequence of TASK-1/TASK-3 heterodimeric channels (O54912 whole entry): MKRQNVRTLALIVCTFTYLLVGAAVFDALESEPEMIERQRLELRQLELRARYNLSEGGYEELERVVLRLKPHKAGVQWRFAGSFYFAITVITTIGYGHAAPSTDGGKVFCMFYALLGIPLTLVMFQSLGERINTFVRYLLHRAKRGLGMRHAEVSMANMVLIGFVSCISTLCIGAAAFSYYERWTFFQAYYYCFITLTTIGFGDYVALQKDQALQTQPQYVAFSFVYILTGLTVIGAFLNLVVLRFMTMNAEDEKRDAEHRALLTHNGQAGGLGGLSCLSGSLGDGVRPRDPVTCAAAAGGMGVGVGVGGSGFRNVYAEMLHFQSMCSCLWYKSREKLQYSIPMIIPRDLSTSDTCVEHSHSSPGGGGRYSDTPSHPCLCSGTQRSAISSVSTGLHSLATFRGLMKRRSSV
Sequence of TASK-1/TASK-3 heterodimeric channels (Q9ES08 whole entry): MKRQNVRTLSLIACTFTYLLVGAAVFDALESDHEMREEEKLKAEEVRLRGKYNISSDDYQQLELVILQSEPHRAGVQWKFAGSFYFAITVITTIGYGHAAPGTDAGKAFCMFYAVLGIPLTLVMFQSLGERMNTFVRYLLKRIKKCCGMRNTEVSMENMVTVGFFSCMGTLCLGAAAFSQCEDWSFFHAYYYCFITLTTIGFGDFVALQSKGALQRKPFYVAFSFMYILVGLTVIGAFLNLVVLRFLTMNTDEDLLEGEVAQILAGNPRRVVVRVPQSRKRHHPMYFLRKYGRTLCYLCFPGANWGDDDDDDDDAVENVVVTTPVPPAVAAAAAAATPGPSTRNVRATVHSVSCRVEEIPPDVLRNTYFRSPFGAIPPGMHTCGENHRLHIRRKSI

Molecule	EC50 for induction of seizures (wild-type C57BL/6 mice)	EC50 for induction of seizures [2, 4]	seizure incidence (N=seizure/total) (wild-type C57BL/6 mice; [5])	seizure incidence (N=seizure/total) (wild-type C57BL/6 mice; [7])	seizure incidence (N=seizure/total) (wild-type C57BL/6 mice; [8])	seizure incidence (N=seizure/total) (wild-type C57BL/6 mice; [9])	seizure duration (typical) (wild-type C57BL/6 mice; C57BL/6, mouse, in vivo)	seizure incidence (N=seizure/total) (wild-type C57BL/6 mice; [11])	seizure duration (typical) [2, 10]	also measured
picrotoxin	~ 1.0 mg/kg	~ 1.0 mg/kg								decrease in current amplitude (averaged, non-significant) ([1]; all tested TASK channel constructs, 50, 100 & 300 μM): ≤ 13%; effect on peak TASK-1/TASK-3 current ([3]; 100 μM): no discernible effect; decrease in peak TASK-1/TASK-3 current ([3]; 300 μM): < 10%
CCCCN1CCCCC1C(=O)Nc1c(C)cccc1C (centres unmarked) [bupivacaine]	3.4 ± 0.1 mg/kg	4.5 ± 0.1 mg/kg	1/14	14/14	12/12	4/4				electroencephalogram peak frequency during seizures (TASK−/− mice): ~ 4.4 ± 0.2 Hz; fold more potent than lidocaine for TASK channel inhibition [1]: 3.1- to 4.4 fold; fold more potent than ropivacaine for TASK channel inhibition ([1]; across TASK channels): 1.4- to 1.7 fold; fold more potent for induction of seizures than ropivacaine (wild-type C57BL/6 mice; C57BL/6, mouse, in vivo): ~ 1.4 fold; seizure incidence (% of mice) (wild-type C57BL/6 mice; [6]): ~ 71%; seizure duration (typical) (wild-type C57BL/6 mice; mouse, in vivo): significantly longer in duration; fold more potent for induction of seizures than ropivacaine [2, 10]: ~ 1.4 fold; electroencephalogram peak frequency during seizures (wild-type mice): 3.4 ± 0.4 Hz
CCN(CC)CC(=O)Nc1c(C)cccc1C [lidocaine]				0/15			< 25 s	4/15	< 25 s	seizure incidence (N=seizure/total) (wild-type C57BL/6 mice; C57BL/6, mouse, in vivo, 15 mg/kg): 10/15; seizure incidence (N=seizure/total) (wild-type C57BL/6 mice; C57BL/6, mouse, in vivo, 17.5 mg/kg): 13/15; EC50 for induction of seizures ([2]; mouse, in vivo): 17.3 ± 1.0 mg/kg
CCCN1CCCC[C@H]1C(=O)Nc1c(C)cccc1C [ropivacaine]	4.7 ± 0.1 mg/kg	6.0 ± 0.2 mg/kg	0/14	10/14	14/14	11/11	< 150 s	3/3	< 150 s	seizure incidence (N=seizure/total) (wild-type C57BL/6 mice; [6]): 0/14; seizure incidence (% of mice) (wild-type C57BL/6 mice; [7]): ~ 72%; seizure incidence (N=seizure/total) (wild-type C57BL/6 mice; C57BL/6, mouse, in vivo, 8.75 mg/kg): 9/9
